Source: article PMC10530836, “Synthesis, Molecular Docking, and Biological Evaluation of Novel Anthranilic Acid Hybrid and Its Diamides as Antispasmodics” (International Journal of Molecular Sciences, 2023)
Like-named read-outs stand apart in the source and are kept apart here.

What was measured:
[1] = tested on: Klebsiella pneumoniae ATCC 13883; assay: Antimicrobial activity, agar well diffusion; type: cell-based; conditions: Dose 0.6 mg/disk, dwell = 6 mm
[2] = tested on: Enterococcus faecalis ATCC 29212; assay: Antimicrobial activity, agar well diffusion; type: cell-based; conditions: Dose 0.6 mg/disk, dwell = 6 mm
[3] = MTT cell viability assay; type: cell-based; conditions: human, 72 h exposure, ± SD, read-out: In vitro cytotoxicity IC50
Protocol: (§1) To evaluate the biocompatibility of the hybrid compounds, their in vitro antiproliferative activity was assessed in a panel of human malignant cell lines of different origin (K-562 and LAMA-84 suspension-growing myeloid leukemia cells, positive for the Philadelphia chromosome, and the urothelial bladder carcinoma cell line T-24 of adherent type). Non-malignant murine fibroblast cells (CCL-1) were also used as a screening platform. All cell lines were purchased from the German Collection of Microorganisms and Cell Cultures (DSMZ GmbH, Braunschweig, Germany). Cell cultures were cultivated in a growth medium RPMI 1640 supplemented with 10% fetal bovine serum (FBS), and 5% L-glutamine and were incubated under standard conditions of 37 °C and 5% humidified CO2 atmosphere. The effects of the newly synthesized anthranilic derivatives on cell viability were measured using a validated colorimetric assay for evaluating cell viability, known as the Mosmann MTT method. Exponential-phased cells were harvested and seeded (100 μL/well) in 96-well plates at the appropriate density (3 × 10^5 for the suspension cultures LAMA-84 and K-562 and 1.5 × 10^5 for the adherent T-24 and CCL-1 cells). Following a 24 h incubation, cells were treated with various concentrations of the experimental compounds in the concentration range of 200–12.5 μM. After an exposure time of 72 h, filter-sterilized MTT substrate solution (5 mg/mL in PBS) was added to each well of the culture plate. A further 2–4 h incubation allowed for the formation of purple insoluble formazan crystals. The latter was dissolved in isopropyl alcohol solution containing 5% formic acid prior to absorbance measurement at 550 nm. Collected absorbance values were blanked against MTT and isopropanol solution and normalized to the mean value of untreated control (100% cell viability).

[4] = tested on: Aspergillus niger ATCC 1015; assay: Antimicrobial activity, agar well diffusion; type: cell-based; conditions: Dose 0.6 mg/disk, dwell = 6 mm
Excerpt: (§2) Twenty tested microorganisms including six Gram-positive bacteria (Bacillus subtilis ATCC 6633, Bacillus amyloliquefaciens 4BCL-YT, Staphylococcus aureus ATCC 25923, Listeria monocytogenes NBIMCC 8632, Enterococcus faecalis ATCC 19433), six Gram-negative bacteria (Salmonella enteritidis ATCC 13076, Klebsiella sp.—clinical isolate, Escherichia coli ATCC 25922, Proteus vulgaris ATCC 6380, Pseudomonas aeruginosa ATCC 9027), two yeasts (Candida albicans NBIMCC 74, Saccharomyces cerevisiae ATCC 9763), and six fungi (Aspergillus niger ATCC 1015, Aspergillus flavus, Penicillium sp., Rhizopus sp., Mucor sp.—plant isolates, Fusarium moniliforme ATCC 38932) from the collection of the Department of Microbiology at the University of Food Technologies—Plovdiv, Bulgaria, were selected for the antimicrobial activity test. The antimicrobial activity of the samples was determined by the agar well diffusion method. The tested bacteria B. subtilis and B. amyloliquefaciens were cultured on LBG agar at 30 °C. The test bacteria S. aureus, L. monocytogenes, E. faecalis, S. enteritidis, Klebsiella sp., E. coli, P. vulgaris, and P. aeruginosa were cultured on LBG agar at 37 °C for 24 h. The yeast C. albicans was cultured on MEA at 37 °C, while S. cerevisiae was cultured on MEA at 30 °C for 24 h. The fungi A. niger, A. flavus, Penicillium sp., Rhizopus sp., Mucor sp., and F. moniliforme were grown on MEA at 30 °C for 7 days or until sporulation. The inocula of the tested bacteria/yeasts was prepared by homogenization of a small amount of biomass in 5 mL of sterile 0.5% NaCl. The inocula of tested fungi were prepared by the addition of 5 mL of sterile 0.5% NaCl into the tubes. After stirring by vortex V-1 plus (Biosan), they were filtered and replaced in other tubes before use. The number of viable cells and fungal spores was determined using a bacterial counting chamber Thoma (Poly-Optik, GmbH, Bad Blankenburg, Germany). Their final concentrations were adjusted to 10^8 cfu/mL for bacterial/yeast cells and 10^5 cfu/mL for fungal spores and then inoculated in preliminarily melted and tempered at 45–48 °C LBG/MEA agar media. Next, the inoculated media were transferred in a quantity of 18 mL in sterile Petri plates (d = 90 mm) (Gosselin™, Hazebrouck, France) and allowed to harden. Then, six wells (d = 6 mm) per plate were cut, and triplicates of 60 μL of each extract were pipetted into the agar wells. The Petri plates were incubated in identical conditions. The antimicrobial activity was determined by measuring the diameter of the inhibition zones around the wells on the 24th and 48th h of incubation. Tested microorganisms with inhibition zones of 18 mm or more were considered sensitive; moderately sensitive were those in which the zones were from 12 to 18 mm; resistant were those in which the inhibition zones were up to 12 mm or completely missing.

[5] = tested on: Bacillus amyloliquefaciens 4BCL-YT; assay: Antimicrobial activity, agar well diffusion; type: cell-based; conditions: Dose 0.6 mg/disk, dwell = 6 mm
Excerpt: as §2

[6] = tested on: Listeria monocytogenes NBIMCC 8632; assay: Antimicrobial activity, agar well diffusion; type: cell-based; conditions: Dose 0.6 mg/disk, dwell = 6 mm
Excerpt: as §2

[7] = tested on: Rhizopus sp.; assay: Antimicrobial activity, agar well diffusion; type: cell-based; conditions: Dose 0.6 mg/disk, dwell = 6 mm
Excerpt: as §2

[8] = tested on: Micrococcus luteus 2YC-YT; assay: Antimicrobial activity, agar well diffusion; type: cell-based; conditions: Dose 0.6 mg/disk, dwell = 6 mm
Excerpt: as §2

[9] = tested on: Staphylococcus aureus ATCC 25923; assay: Antimicrobial activity, agar well diffusion; type: cell-based; conditions: Dose 0.6 mg/disk, dwell = 6 mm
Excerpt: as §2

[10] = tested on: Salmonella typhimurium NBIMCC 1672; assay: Antimicrobial activity, agar well diffusion; type: cell-based; conditions: Dose 0.6 mg/disk, dwell = 6 mm
Excerpt: as §2

[11] = tested on: Penicillium chrysogenum; assay: Antimicrobial activity, agar well diffusion; type: cell-based; conditions: Dose 0.6 mg/disk, dwell = 6 mm
Excerpt: as §2

[12] = tested on: Escherichia coli ATCC 25922; assay: Antimicrobial activity, agar well diffusion; type: cell-based; conditions: Dose 0.6 mg/disk, dwell = 6 mm
Excerpt: as §2

[13] = tested on: Bacillus subtilis ATCC 6633; assay: Antimicrobial activity, agar well diffusion; type: cell-based; conditions: Dose 0.6 mg/disk, dwell = 6 mm
Excerpt: as §2

[14] = tested on: Proteus vulgaris ATCC 6380; assay: Antimicrobial activity, agar well diffusion; type: cell-based; conditions: Dose 0.6 mg/disk, dwell = 6 mm
Excerpt: as §2

[15] = tested on: Aspergillus flavus; assay: Antimicrobial activity, agar well diffusion; type: cell-based; conditions: Dose 0.6 mg/disk, dwell = 6 mm
Excerpt: as §2

[16] = tested on: Pseudomonas aeruginosa ATCC 9027; assay: Antimicrobial activity, agar well diffusion; type: cell-based; conditions: Dose 0.6 mg/disk, dwell = 6 mm
Excerpt: as §2

[17] = tested on: Salmonella enteritidis ATCC 13076; assay: Antimicrobial activity, agar well diffusion; type: cell-based; conditions: Dose 0.6 mg/disk, dwell = 6 mm
Excerpt: as §2

[18] = MTT cell viability assay; type: cell-based, murine; conditions: mouse, CCL-1 normal fibroblast cells (adherent); CCL-1, MTT, 72 h exposure, ± SD; read-out: In vitro cytotoxicity IC50
Protocol: as §1

[19] = K-562 myeloid leukemia cells (suspension), K-562, MTT
[20] = LAMA-84 myeloid leukemia cells (suspension), LAMA-84, MTT
[21] = T-24 urothelial bladder carcinoma cells (adherent), T-24, MTT

SMILES | Inhibition Zones [1] [mm] | Inhibition Zones [2] [mm] | IC50 at 72 h [3, 19] [µM] | IC50 at 72 h [3, 20] [µM] | IC50 at 72 h [3, 21] [µM] | Inhibition Zones [4] [mm] | Inhibition Zones [5] [mm] | Inhibition Zones [6] [mm] | Inhibition Zones [7] [mm] | Inhibition Zones [8] [mm] | Inhibition Zones [9] [mm] | Inhibition Zones [10] [mm] | Inhibition Zones [11] [mm] | Inhibition Zones [12] [mm] | Inhibition Zones [13] [mm] | Inhibition Zones [14] [mm] | Inhibition Zones [15] [mm] | Inhibition Zones [16] [mm] | Inhibition Zones [17] [mm] | IC50 at 72 h [18] [µM]
Nc1ccccc1C(=O)NCCc1cccc(Cl)c1 [Compound 3, 2-amino-N-(3-chlorophenethyl)benzamide] | 8 | 12 | 154 ± 11.1 | 115 ± 10.5 | 137 ± 12.5 | 20 | 11 | 12 | 20 | 19 | 8 | 12 | 20 | 13 | 12 | 8 | 20 | 14 | 12 | > 200
CC(=O)Nc1ccccc1C(=O)NCCc1cccc(Cl)c1 [Compound 4a, 2-acetamido-N-(3-chlorophenethyl)benzamide] | 14 | 12 | > 200 | 112 ± 9.4 | > 200 | 10 |  | 8 | 8 | 10 |  | 8 | 13 | 9 | 8 | 8 | 8 | 9 | 12 | > 200
O=C(Nc1ccccc1C(=O)NCCc1cccc(Cl)c1)c1ccccc1 [Compound 4b, 2-benzamido-N-(3-chlorophenethyl)benzamide] |  | 8 | 55.2 ± 4.7 | 60.7 ± 5.3 | 94.9 ± 5 | 11 | 10 | 12 | 11 | 15 | 8 | 8 | 15 | 11 | 11 | 8 | 13 | 10 | 8 | > 200
